Series [1] has as its system HEK293T cells. The experiment in a line: In vitro Luc-mRNA transfection, luciferase luminescence expression in HEK293T cells. Format: cell-based, human. The arrangement: unit not given here. The note with it: Table 16; HEK 293T cells, 125 ng/well, n=3. Summed up:
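HEK293T cells were transfected with nucleoside-modified firefly luciferase mRNA at 125 ng/well delivered in the test particles. TransIT and MC3-based LNPs at equal mRNA dose served as comparators. After 24 h (18-20 h in some runs) at 37° C the cells were lysed, and luciferase luminescence was read on a luminometer, in triplicate.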

The test system of series [2] is BALB/c mice. Briefly: In vivo mRNA delivery in mice with DNPs, whole-body bioluminescence imaging (IVIS). Here is the method:
The exposure time was 1 min.
Luminescence characterization for in vivo transfection experiments employed bioluminescence imaging with an IVIS Spectrum imaging system (PerkinElmer, Waltham, MA). Mice were anesthetized with 3% of isoflurane (Piramal Healthcare Limited) and intraperitoneally (i.p.) administered with D-luciferin (Regis Technologies) at a dose of 150 mg/kg of body weight. Ten minutes post administration of D-luciferin, mice were placed on the imaging platform while being maintained on isoflurane via a nose cone and imaged using an exposure time of 60 seconds. […] To quantify luminescent flux, an oval ROI was placed over each organ of interest and analyzed.
Tissue luminescence signal was measured on the IVIS imaging system using an exposure time of 60 seconds using medium binning (binning=8) to ensure that the signal obtained was within operative detection range. […] Bioluminescence imaging was performed as described above.
Luminescence Characterization for In Vivo Transfection Experiments: bioluminescence imaging was performed with an IVIS Spectrum imaging system (PerkinElmer, Waltham, MA).

In series [3] the test system is lung. Briefly: In vivo mRNA delivery, IVIS imaging of organs: lung. More on the design: species or system mice; key to Organs with luminescence: lung: strong: Strong meant the luminescence intensity in that organ was relatively high, compared to other organs; weak: Weak meant the luminescence intensity in that organ was relatively low, compared to other organs. The settings on record: Table 17; mice, IVIS, 4-6 h after injection; intensity relative to other organs.

Series [4] is described as follows: Stability of DNPs by DLS after storage at 5° C. It counts as physicochemical. The arrangement: key: Excellent: the original sizes and distribution types remained almost the same after storage; Good: the original sizes and distribution types changed slightly (size difference was less than 100 nm) or the original size remained almost the same but the DLS curve showed more size distributions after storage. Here is the method: The stability of the DNPs as assayed by DLS. All the samples are prepared in acetate buffer. The stabilities of the constructs were ranked: Excellent (in bold)—the original sizes and distribution remains almost the same after storage; Good—the original relatively big sizes became smaller or broad size distribution became narrower; Not stable—the original relatively big sizes or broad size distribution remained almost the similar level, or the original relatively small sizes became bigger or narrow size distribution became broader.

The mark [5] stands for this setting: Table 20, nonsymmetric IAJDs and MC3-Luc-mRNA.

Results on 17 molecules are retold here after patent publication US20240252677A1, “ONE-COMPONENT DELIVERY SYSTEM FOR NUCLEIC ACIDS” (The Trustees of the University of Pennsylvania, priority 2021, published 2024).

For the molecule `CCCCCCCCCCCCCCCCCOc1cc(COC(=O)CCCN2CCN(CCO)CC2)cc(OCCCCCCCCCCC)c1` [IAJD 127, 3-(Heptadecyloxy)-5-(undecyloxy)benzyl 4-(4-(2-hydroxyethyl)piperazin-1-yl)butanoate], the Luminescence in series [1] is 147,731. Also, in series [2] (Table 19, nonsymmetric IAJDs), the “In vivo activity (total flux, p/s)” value is listed as 1.07 × 10^8 p/s. In series [3], the “Organs with luminescence: lung” value is recorded as “Lung (weak),”. The Ranking of stability result in series [4] (after 62 days at 5° C.) is given as “Good”.

Turning to `CCCCCCCCCCCCCCCCCCOc1cc(COC(=O)CCCN2CCN(CCO)CC2)cc(OCCCCCCCCCCC)c1` [IAJD 128, 3-(Octadecyloxy)-5-(undecyloxy)benzyl 4-(4-(2-hydroxyethyl)piperazin-1-yl)butanoate], in series [1], the Luminescence is 449,311. Further, the “In vivo activity (total flux, p/s)” value in series [2] (Table 19, nonsymmetric IAJDs) was 5.53 × 10^7 p/s; in series [2] (setting [5]), 5.53 × 10^7 p/s. The “Organs with luminescence: lung” value in series [3] is given as “Lung (weak),”. Besides, in series [4] (after 70 days at 5° C.), the Ranking of stability entry was “Excellent”.

On to `CCCCCCCCCCCOc1cc(COC(=O)CCCN2CCN(CCO)CC2)cc(OCC(CC)CCCC)c1` (stereo not shown) [IAJD 130, 3-((2-Ethylhexyl)oxy)-5-(undecyloxy)benzyl 4-(4-(2-hydroxyethyl)piperazin-1-yl)butanoate], for which the Luminescence in series [1] is listed as 76,345. The “In vivo activity (total flux, p/s)” value in series [2] (Table 19, nonsymmetric IAJDs) was 1.18 × 10^8 p/s; in series [2] (setting [5]) it was 1.18 × 10^8 p/s. In series [3], the “Organs with luminescence: lung” value is “Lung (weak),”. The Ranking of stability entry in series [4] (after 62 days at 5° C.) is “Excellent”.

As for `CCCCCCCCCCCCCCCOc1cc(COC(=O)CCCN2CCN(C)CC2)cc(OCC(CC)CCCC)c1` (stereo not shown) [IAJD 135, 3-((2-Ethylhexyl)oxy)-5-(pentadecyloxy)benzyl 4-(4-methylpiperazin-1-yl)butanoate], the Luminescence in series [1] is 432. For the same molecule, the “In vivo activity (total flux, p/s)” value in series [2] (Table 19, nonsymmetric IAJDs) is 1.22 × 10^7 p/s. The “Organs with luminescence: lung” value in series [3] was “Lung (weak),”. The Ranking of stability entry in series [4] (after 27 days at 5° C.) was “Excellent”.

For `CCCCCCCCCCCCCCCOc1cc(COC(=O)CCCN2CCN(CCO)CC2)cc(OCC(CC)CCCC)c1` (stereo not shown) [IAJD 136, 3-((2-Ethylhexyl)oxy)-5-(pentadecyloxy)benzyl 4-(4-(2-hydroxyethyl)piperazin-1-yl)butanoate], the Luminescence in series [1] is listed as 283,656. Further, in series [2] (Table 19, nonsymmetric IAJDs), the “In vivo activity (total flux, p/s)” value is recorded as 1.04 × 10^7 p/s. Also, the “Organs with luminescence: lung” value in series [3] was “Lung (weak),”. In series [4] (after 27 days at 5° C.), the Ranking of stability result is “Excellent”.

On to `CCCCCCCCCCCCCCCOc1cc(COC(=O)CCCN2CCN(CCO)CC2)cc(OCCCCCCCC)c1` [IAJD 138, 3-(Octyloxy)-5-(pentadecyloxy)benzyl 4-(4-(2-hydroxyethyl)piperazin-1-yl)butanoate], for which the Luminescence in series [1] is listed as 102,620. Moreover, in series [2] (Table 19, nonsymmetric IAJDs), the “In vivo activity (total flux, p/s)” value is 1.49 × 10^7 p/s. For the same molecule, in series [3], the “Organs with luminescence: lung” value is listed as “Lung (weak),”. Also, in series [4] (after 35 days at 5° C.), the Ranking of stability result is listed as “Good”.

`CCCCCCCCCCCCCCCOc1cc(COC(=O)CCCN2CCN(C)CC2)cc(OCCCCCCCCCC)c1` [IAJD 141, 3-(Decyloxy)-5-(pentadecyloxy)benzyl 4-(4-methylpiperazin-1-yl)butanoate]: the Luminescence in series [1] is recorded as 140,589. Besides, the “In vivo activity (total flux, p/s)” value in series [2] (Table 19, nonsymmetric IAJDs) was 2.06 × 10^7 p/s. Further, the “Organs with luminescence: lung” value in series [3] is on record as “Lung (weak),”. Also, the Ranking of stability result in series [4] (after 27 days at 5° C.) is listed as “Excellent”.

As for `CCCCCCCCCCCCCCCOc1cc(COC(=O)CCCN2CCN(CCO)CC2)cc(OCCCCCCCCCC)c1` [IAJD 142, 3-(Decyloxy)-5-(pentadecyloxy)benzyl 4-(4-(2-hydroxyethyl)piperazin-1-yl)butanoate], in series [1], the Luminescence is reported as 463,750. Moreover, the “In vivo activity (total flux, p/s)” value in series [2] (Table 19, nonsymmetric IAJDs) is recorded as 2.51 × 10^7 p/s. In series [3], the “Organs with luminescence: lung” value is recorded as “Lung (weak),”. Besides, the Ranking of stability result in series [4] (after 27 days at 5° C.) is on record as “Excellent”.

For `CCCCCCCCCCCCCCCOc1cc(COC(=O)CCCN2CCN(C)CC2)cc(OCCCCCCCCCCCC)c1` [IAJD 143, 3-(Dodecyloxy)-5-(pentadecyloxy)benzyl 4-(4-methylpiperazin-1-yl)butanoate], the Luminescence in series [1] is on record as 71,851. Also, in series [2] (Table 19, nonsymmetric IAJDs), the “In vivo activity (total flux, p/s)” value is listed as 1.28 × 10^7 p/s. The “Organs with luminescence: lung” value in series [3] was “Lung (strong),”. The Ranking of stability entry in series [4] (after 27 days at 5° C.) is given as “Excellent”.

Consider `CCCCCCCCCCCCCCCOc1cc(COC(=O)CCCN2CCN(CCO)CC2)cc(OCCCCCCCCCCCC)c1` [IAJD 144, 3-(Dodecyloxy)-5-(pentadecyloxy)benzyl 4-(4-(2-hydroxyethyl)piperazin-1-yl)butanoate], for which, in series [1], the Luminescence was 253,672. In addition, in series [2] (Table 19, nonsymmetric IAJDs), the “In vivo activity (total flux, p/s)” value was 1.39 × 10^7 p/s. Besides, the “Organs with luminescence: lung” value in series [3] is reported as “Lung (weak),”. Further, the Ranking of stability entry in series [4] (after 27 days at 5° C.) is listed as “Excellent”.

For `CCCCCCCCCCCCCCCOc1cc(COC(=O)CCCN2CCN(C)CC2)cc(OCCCCCCCCCCCCC)c1` [IAJD 145, 3-(pentadecyloxy)-5-(tridecyloxy)benzyl 4-(4-methylpiperazin-1-yl)butanoate], in series [1], the Luminescence is 296. The “In vivo activity (total flux, p/s)” value in series [2] (Table 19, nonsymmetric IAJDs) is recorded as 9.25 × 10^6 p/s. Moreover, the “Organs with luminescence: lung” value in series [3] is “Lung (strong),”. In addition, the Ranking of stability entry in series [4] (after 27 days at 5° C.) is on record as “Excellent”.

Regarding `CCCCCCCCCCCCCCCOc1cc(COC(=O)CCCN2CCN(CCO)CC2)cc(OCCCCCCCCCCCCC)c1` [IAJD 146, 3-(Pentadecyloxy)-5-(tridecyloxy)benzyl 4-(4-(2-hydroxyethyl)piperazin-1-yl)butanoate], the Luminescence in series [1] is 50,625. Besides, in series [2] (Table 19, nonsymmetric IAJDs), the “In vivo activity (total flux, p/s)” value is reported as 4.70 × 10^7 p/s. In series [3], the “Organs with luminescence: lung” value is recorded as “Lung (strong),”. The Ranking of stability entry in series [4] (after 27 days at 5° C.) is “Excellent”.

In the case of `CCCCCCCCCCCCCCCOc1cc(COC(=O)CCCN2CCN(C)CC2)cc(OCCCCCCCCCCCCCC)c1` [IAJD 147, 3-(Pentadecyloxy)-5-(tetradecyloxy)benzyl 4-(4-methylpiperazin-1-yl)butanoate], the Luminescence in series [1] is 5,844. Further, in series [2] (Table 19, nonsymmetric IAJDs), the “In vivo activity (total flux, p/s)” value was 9.24 × 10^6 p/s. Moreover, in series [3], the “Organs with luminescence: lung” value is given as “Lung (weak),”. In series [4] (after 19 days at 5° C.), the Ranking of stability result is “Excellent”.

In the case of `CCCCCCCCCCCCCCCOc1cc(COC(=O)CCCN2CCN(CCO)CC2)cc(OCCCCCCCCCCCCCC)c1` [IAJD 148, 3-(Pentadecyloxy)-5-(tetradecyloxy)benzyl 4-(4-(2-hydroxyethyl)piperazin-1-yl)butanoate], in series [1], the Luminescence is given as 139,420. Further, the “In vivo activity (total flux, p/s)” value in series [2] (Table 19, nonsymmetric IAJDs) is 6.33 × 10^7 p/s. In series [3], the “Organs with luminescence: lung” value is recorded as “Lung (weak),”. Further, the Ranking of stability entry in series [4] (after 19 days at 5° C.) is “Good”.

On to `CCCCCCCCCCCCCCCCOc1cc(COC(=O)CCCN2CCN(C)CC2)cc(OCCCCCCCCCCCCCCC)c1` [IAJD 149, 3-(Hexadecyloxy)-5-(pentadecyloxy)benzyl 4-(4-methylpiperazin-1-yl)butanoate], for which the Luminescence in series [1] is given as 149,935. The “In vivo activity (total flux, p/s)” value in series [2] (Table 19, nonsymmetric IAJDs) was 2.26 × 10^7 p/s. Moreover, the “Organs with luminescence: lung” value in series [3] was “Lung (weak),”. For the same molecule, the Ranking of stability entry in series [4] (after 19 days at 5° C.) is “Excellent”.

Regarding `CCCCCCCCCCCCCCCCOc1cc(COC(=O)CCCN2CCN(CCO)CC2)cc(OCCCCCCCCCCCCCCC)c1` [IAJD 150, 3-(Hexadecyloxy)-5-(pentadecyloxy)benzyl 4-(4-(2-hydroxyethyl)piperazin-1-yl)butanoate], in series [1], the Luminescence was 134,225. Further, the “In vivo activity (total flux, p/s)” value in series [2] (Table 19, nonsymmetric IAJDs) was 3.47 × 10^7 p/s. Moreover, the “Organs with luminescence: lung” value in series [3] was “Lung (weak),”. The Ranking of stability result in series [4] (after 19 days at 5° C.) is “Excellent”.

Take `CCCCCCCCCCCCCCCCCOc1cc(COC(=O)CCCN2CCN(C)CC2)cc(OCCCCCCCCCCCCCCC)c1` [IAJD 151, 3-(Heptadecyloxy)-5-(pentadecyloxy)benzyl 4-(4-methylpiperazin-1-yl)butanoate]: the Luminescence in series [1] was 9,310. In addition, the “In vivo activity (total flux, p/s)” value in series [2] (Table 19, nonsymmetric IAJDs) is 3.12 × 10^7 p/s. In addition, the “Organs with luminescence: lung” value in series [3] is on record as “Lung (weak),”. Also, in series [4] (after 35 days at 5° C.), the Ranking of stability entry was “Excellent”.
